Data reported in patent US20130109581A1, “POSITIVELY CHARGED SPECIES AS BINDING REAGENTS IN THE SEPARATION OF PROTEIN AGGREGATES FROM MONOMERS” (priority 2009, published 2013).
“And” between values parts separate entries of the source, which are not always exact repeats. Equal values may be shown once.

Key:
[1] = biological target: T1, E22G globulomer (beta amyloid 1-42, Arctic mutation) (Homo sapiens, UniProt P05067, E693G); experiment: NMPA capture of E22G globulomer; type: binding; details: neutrally charged mutant; FIG. 8
T1 construct: Three beta amyloid 1-42 peptides were generated to test the role of E22; purchased Anaspec
Text: (§1) Three beta amyloid 1-42 peptides were generated to test the role of E22: a wild-type peptide, a mutant peptide containing Arctic mutation E22G with a neutral charge, and a mutant peptide containing Italian mutation E22K with a positive charge. Synthetic peptides were commercially available from Anaspec.
(§2) Mutant peptides were oligomerized according to the methods described in Example 3.
NMPA was used to evaluate the ability of PSR1 to capture the E22G globulomer. The methods used are described in Example 2.

[2] = biological target: T2, E22K globulomer (beta amyloid 1-42, Italian mutation) (Homo sapiens, UniProt P05067, E693K); experiment: NMPA capture of E22K globulomer; type: binding; details: positively charged mutant; FIG. 10
T2 construct: Three beta amyloid 1-42 peptides were generated to test the role of E22; purchased Anaspec
Text: as §1, §2

[3] = biological target: T3, Aβ42 Monomer (Homo sapiens, UniProt P05067); experiment: Misfolded Protein Assay, Limit of Detection in CSF: monomer; type: binding; details: spiked into CSF; LoD = 2× over background
T3 construct: The Ab42 aggregates were prepared as previously described
Experimental: (§3) The Ab42 aggregates were prepared as previously described: fibrils were prepared per Stine et al (JBC 2003, 278, p11612), globulomers were prepared per Barghorn et al (J Neurology 2005 95 p834), ADDLs were prepared per Lambert et al (PNAS 1998, 95 p6448), and ASPDs were prepared per Noguchi et al (JBC 2009 284 p32895). Normal CSF was pooled from clinically characterized non-demented patient CSF samples. AD CSF was pooled from clinically-characterized AD patient samples. Alzheimer's Disease Brain Homogenate (ADBH) was prepared by sonication of clinically diagnosed AD patient brain samples in 0.2M.sucrose (1:10 w/v).
(§4) For the capture assay (Misfolded Protein Assay), aliquots of the beads (30 ul) were added to wells of a 96 well plate, followed by 125 ul of sample in 80:20 CSF:TBSTT. The plate was sealed and incubated for 1 h at 37 C with shaking. The plate was washed with TBST and the residual buffer removed. A denaturing solution (0.1 N NaOH) was added to each well and the plate heated to 80 C. for 30 min with shaking. After cooling the plate to RT, a neutralizing buffer (0.12 M NaH2PO3-0.4% TW20,) was added and the plate shaken briefly at RT. The assay was analyzed using the triplex Mesoscale Discovery ELISA kit for Aβ. The Aβ in the samples eluted from the beads were detected per the manufacturer's protocol. […]

[4] = biological target: Aβ42 ADDL (Homo sapiens, UniProt P05067); experiment: Misfolded Protein Assay, LoD and capture in CSF: ADDL; type: binding; details: for LoD: spiked into CSF
Experimental: as §3
For the capture assay (Misfolded Protein Assay), aliquots of the beads (30 ul) were added to wells of a 96 well plate, followed by 125 ul of sample in 80:20 CSF:TBSTT. The plate was sealed and incubated for 1 h at 37 C with shaking. The plate was washed with TBST and the residual buffer removed. A denaturing solution (0.1 N NaOH) was added to each well and the plate heated to 80 C. for 30 min with shaking. After cooling the plate to RT, a neutralizing buffer (0.12 M NaH2PO3-0.4% TW20,) was added and the plate shaken briefly at RT. The assay was analyzed using the triplex Mesoscale Discovery ELISA kit for Aβ. The Aβ in the samples eluted from the beads were detected per the manufacturer's protocol.
For the Limit of Detection (LoD) studies, serial dilutions of each aggregate were spiked into CSF and were assayed per the protocol described above. The LoD was defined as 2× over background levels.
This pattern minors the capture selectivity observed when these species are tested with 3 ul of PSR1 beads and 1 ng/mL of aggregate.

[5] = tested on: Alzheimer's Disease Brain Homogenate (ADBH) Aβ aggregates; experiment: Misfolded Protein Assay, LoD in CSF: ADBH; type: binding, human; details: spiked into CSF
Experimental: as §3, §4

[6] = biological target: amylin fibrils (Homo sapiens, UniProt P10997); experiment: MPA of in vitro synthesized amylin; type: binding; details: buffer and plasma; FIG. 45
Sequence of amylin fibrils (P10997 34-70 limits assumed): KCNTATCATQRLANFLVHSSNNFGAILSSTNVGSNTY

[7] = biological target: alpha synuclein fibrils (Homo sapiens, UniProt P37840); experiment: MPA of alpha-synuclein fibrils in CSF or plasma; type: binding
Experimental: Amylin fibrils were prepared as reported in J. Biological Chem. (1999) 274, No. 28, pp 19509-19512. To denature the fibrils, samples were treated with 5.4 M guanidine thiocyanate for 30 minutes at room temperature. The samples were then diluted to the indicated concentrations and alpha synuclein was detected by a sandwich ELISA (Invitrogen; catalog #KHB0061) according to the manufacturer's instructions.
The specificity of PSR1 beads for aggregated alpha synuclein was tested by incubating 3 ul PSR1 beads with fibrillar alpha-synuclein with or without a pretreatment with chemical denaturant (5.4 M guanidine thiocyanate for 30 minutes at room temperature). Alpha synuclein was diluted into 125 ul 80% CSF or plasma in TBSTT (50 mM Tris, 150 mM NaCl, 1% TritonX-100, 1% Tween20) at the indicated concentrations. Samples were incubated for 1 hour at 37 C and 550 rpm before washing with TBS 0.05% Tween20 buffer. Bound alpha synuclein was eluted from the beads with 4 ul 6 M guanidine thiocyanate (30 minutes at room temperature), diluted with 246 ul ELISA diluent buffer and then detected by sandwich ELISA (Invitrogen; catalog #KHB0061).

[8] = tested on: 263K prion infectivity; design: species or system Tg(SHaPrP) mice; details: mouse, in vivo
[9] = biological target: T4, oligomeric beta amyloid 1-42 (globulomer) (Homo sapiens, UniProt P05067); experiment: Misfolded Protein Assay: capture of globulomer spiked into CSF (Example 2); type: binding; details: conjugated to cellulose membrane; loading approximately 100× higher than on beads
T4 construct: beta amyloid (1-42) was monomerized with incubation in hexafluoroisopropanol

Substance: Nab-Nab-Nab-Nbn-Nab-Nbn [PSR1]
- capture of E22G globulomer [1]: not captured
- capture of E22K globulomer [2]: captured efficiently
- LoD [3]: ~1000 pg/mL
- capture of ADDL ([4]; 3 ul of beads and 1 ng/mL of aggregate): 1219
- LoD [4]: ~20 amol
- LoD ([4]; LoD = 2× over background): ~200 pg/mL and 200 pg/mL
- LoD [5]: <0.2 amol
- binding to amylin fibrils over monomers [6]: bind preferentially to in vitro-synthesized amylin fibrils over amylin monomers in both buffer (A) and plasma (B)
- binding to alpha synuclein fibrils compared to control bead ([7]; diluted into CSF or plasma, FIG. 50): specifically bound to alpha synuclein (aSyn) fibrils
- binding to alpha synuclein fibrils vs monomers ([7]; native vs denatured aSyn in CSF or plasma, FIG. 51): bound preferentially to alpha synuclein fibrils
- 125 μl pooled plasma corresponds to 30 μl of a dilution of 263 K hamster brain homogenate [8]: 10^−8 dilution of 263 K and 10^−7 dilution of 263 K
- Attack rate (Clinical TSE/total inoculated) [8]: 100% (8/8) and 50% (2/4) and 100% (4/4) and 81% (13/16)
- Mean incubation period (days) [8]: 74 ± 3 dpi and 76 ± 5 dpi and 94 ± 5 dpi
- capture and transmission of prion infectivity [8]: capture prion infectivity from prion-infected blood samples and transmit it with high efficiency to Tg(SHaPrP) mice
- incubation period (days) [8]: 56, 85 days
- mean incubation times [8]: 74-94 days post inoculation
- ability to bind preferentially to oligomers in solution [9]: continued to increase the ability of PSR1 to bind preferentially to oligomers in solution
